The values that follow come from ChEMBL document CHEMBL1156236, “Trypanoside, anti-tuberculosis, leishmanicidal, and cytotoxic activities of tetrahydrobenzothienopyrimidines” (Bioorg Med Chem, 2010).

The test system of data set [1] is Leishmania amazonensis. Briefly: Antileishmanial activity against Leishmania amazonensis LV79 MPRO/BR/72/M1841 amastigotes infected BALB/c mouse assessed as lesion diameter at 33 mg/kg/day, intralesionally administered after 1 week post infection 3 times per week for 6 weeks measured on week 4 relative to control. The data set is classed as functional, organism-based.

Data set [2] deals with Leishmania amazonensis. The data set is described as follows: Antileishmanial activity against Leishmania amazonensis LV79 MPRO/BR/72/M1841 amastigotes infected BALB/c mouse assessed as reduction of parasite burden at 33 mg/kg/day, intralesionally administered after 1 week post infection 3 times per week for 6 weeks measured on week 7 by fluorescence method relative to control. It counts as functional, organism-based. The arrangement: scale not given: the % may be the effect or the level left.

Data set [3] concerns Leishmania amazonensis. The data set is described as follows: Antileishmanial activity against Leishmania amazonensis LV79 MPRO/BR/72/M1841 amastigotes infected BALB/c mouse assessed as lesion diameter at 5 mg/kg/day, intralesionally administered after 1 week post infection 3 times per week for 6 weeks measured on week 7 relative to control. It counts as functional.
Data set [4] relates to Leishmania amazonensis. The data set is described as follows: Antileishmanial activity against Leishmania amazonensis LV79 MPRO/BR/72/M1841 amastigotes infected BALB/c mouse assessed as lesion diameter at 33 mg/kg/day, intralesionally administered after 1 week post infection 3 times per week for 6 weeks measured on week 7 relative to control. The data set is classed as functional, organism-based.

Data set [5] deals with Leishmania amazonensis. The data set is described as follows: Antileishmanial activity against Leishmania amazonensis LV79 MPRO/BR/72/M1841 amastigotes infected BALB/c mouse assessed as reduction of parasite burden at 33 mg/kg/day, intralesionally administered after 1 week post infection 3 times per week for 6 weeks measured on week 4 by fluorescence method relative to control. The data set is classed as functional, organism-based. Details: scale not given: the % may be the effect or the level left.

The nature of data set [6]: Selectivity index, ratio of IC50 for BALB/c mouse macrophages to IC50 for Leishmania amazonensis MHOM/BR/76/LTB-012.
For the next data set, the system named is Leishmania braziliensis. The data set is described as follows: Antileishmanial activity against Leishmania braziliensis MHOM/PE/PER006 promastigote infected BALB/c mouse macrophages after 48 hrs by Giemsa staining method. It counts as functional, organism-based. The note with it: MHOM/PE/PER006, 48 h.
A further data set deals with DU-145. The data set is described as follows: Cytotoxicity against human DU145 cells. The data set is classed as functional.
Data set [7] relates to Leishmania amazonensis. The data set is described as follows: Antileishmanial activity against Leishmania amazonensis LV79 MPRO/BR/72/M1841 amastigotes infected BALB/c mouse assessed as lesion diameter at 5 mg/kg/day, intralesionally administered after 1 week post infection 3 times per week for 6 weeks measured on week 4 relative to control. The data set is classed as functional.

Another data set concerns M14. The data set is described as follows: Cytotoxicity against human M14 cells. It counts as functional.
Data set [8] can be described thus: Selectivity index, ratio of IC50 for african green monkey Vero cells to IC50 for Trypanosoma cruzi tulahuen C4. The note with it: Vero cells.
Data set [9] is described as follows: Cytotoxicity against BALB mouse 3T3 cells. It counts as cell-based. The settings on record: BALB 3T3 cells.
Data set [10] concerns Leishmania amazonensis. The data set is described as follows: Antileishmanial activity against Leishmania amazonensis Lma CL1 amastigotes infected BALB/c mouse macrophages after 48 hrs by Giemsa staining method. The data set is classed as functional, organism-based. The note with it: Lma CL1, 48 h.
The next data set has as its system K562. Briefly: Cytotoxicity against human K562 cells. The data set is classed as functional.
A further data set relates to NCI-H460. The data set is described as follows: Cytotoxicity against human NCI-H460 cells. It counts as functional.
The test system of data set [11] is Mycobacterium tuberculosis. The data set is described as follows: Antitubercular activity against Mycobacterium tuberculosis H37Rv ATCC 27294 after 7 days by microplate alamar blue assay. The data set is classed as functional. The note with it: H37Rv ATCC 27294, 168 h. In general terms: Resazurin is reduced to fluorescent resorufin, in cell work by metabolically active cells.

A further data set relates to MCF7. Briefly: Cytotoxicity against human MCF7 cells. The data set is classed as functional.
The test system of data set [12] is Leishmania amazonensis. Briefly: Antileishmanial activity against Leishmania amazonensis LV79 MPRO/BR/72/M1841 amastigotes infected BALB/c mouse assessed as reduction of parasite burden at 5 mg/kg/day, intralesionally administered after 1 week post infection 3 times per week for 6 weeks measured on week 7 by fluorescence method relative to control. The arrangement: scale not given: the % may be the effect or the level left. The data set is classed as functional.

The nature of data set [13]: Selectivity index, ratio of IC50 for african green monkey Vero cells to MIC for Mycobacterium tuberculosis H37Rv ATCC 27294 by microplate alamar blue assay. It counts as functional.
Data set [14] relates to Leishmania amazonensis. The data set is described as follows: Antileishmanial activity against Leishmania amazonensis MHOM/BR/76/LTB-012 amastigotes infected BALB/c mouse macrophages after 48 hrs by MTT assay. It counts as functional, organism-based. The settings on record: MHOM/BR/76/LTB-012, 48 h.
Data set [15] concerns Leishmania amazonensis. The data set is described as follows: Antileishmanial activity against Leishmania amazonensis LV79 MPRO/BR/72/M1841 amastigotes infected BALB/c mouse assessed as reduction of parasite burden at 5 mg/kg/day, intralesionally administered after 1 week post infection 3 times per week for 6 weeks measured on week 4 by fluorescence method relative to control. It counts as functional. Details: scale not given: the % may be the effect or the level left.

For a further data set, the system named is Leishmania peruviana. Briefly: Antileishmanial activity against Leishmania peruviana MHOM/PE/LCA08 promastigote infected BALB/c mouse macrophages after 48 hrs by Giemsa staining method. It counts as functional, organism-based. The settings on record: MHOM/PE/LCA08, 48 h.
The subject of another data set is Vero. Briefly: (§1) Cytotoxicity against african green monkey Vero cells after 72 hrs by MTS assay. The settings on record: Chlorocebus sabaeus, Vero, 72 h.
The nature of data set [16]: Cytotoxicity against BALB/c mouse macrophages after 48 hrs by trypan blue dye exclusion method. It counts as cell-based. The settings on record: Macrophage.
Another data set relates to HT-29. The data set is described as follows: Cytotoxicity against human HT-29 cells. The data set is classed as functional.
In data set [17] the test system is Trypanosoma cruzi. The data set is described as follows: Antitrypanosomal activity against Trypanosoma cruzi tulahuen C4 trypomastigotes infected in african green monkey Vero cells assessed as CPRG cleavage after 120 hrs by microplate reader. The data set is classed as functional, organism-based.
The test system of data set [18] is Trypanosoma cruzi. Briefly: Antitrypanosomal activity against Trypanosoma cruzi tulahuen C4 trypomastigotes infected mouse assessed as decrease in parasite replication at 20 mg/kg/day, ip on days 6 to 11 days post infection after 6 days. It counts as functional, organism-based.
Data set [19] is described as follows: as §1. The note with it: chlorocebus sabaeus, Vero cells.
Data set [20] relates to Mycobacterium tuberculosis. Briefly: Antitubercular activity against Mycobacterium tuberculosis H37Rv ATCC 27294 after 7 days by low oxygen recovery assay. The settings on record: H37Rv ATCC 27294, 168 h. The data set is classed as functional.

pIC50: −log10 of the molar value. Values after ≈ are worked out from the molar mass of the structure shown. Active and inactive are the calls of the source. No cut-off for these calls is given here.

Turning to MEGLUMINE ANTIMONATE, the Activity with Leishmania amazonensis [1] turned out to be 2.1 mm; with Leishmania amazonensis [2], 100%; in the data set on Leishmania amazonensis [3], 4.7 mm; in the data set with Leishmania amazonensis [4], 2.2 mm; in the data set with Leishmania amazonensis [5] it was 100%.

The term pIC50 denotes the IC50 on a negative log10 scale, so that one unit is a factor of ten. By GI50 is commonly meant the concentration giving 50% growth inhibition. By MIC is commonly meant the lowest concentration that inhibits growth of the organism. For `CCC(CC)=NNc1ncnc2sc3c(c12)CCCC3`, the “Ratio IC50” value in [6] is recorded as 8.5; in [13] it was 0.7. The pIC50 is 4.95 with Leishmania braziliensis; 4.96 in the data set with Leishmania amazonensis [10]; 4.72 with Leishmania amazonensis [14]; 5.15 in the data set on Leishmania peruviana; 4.68 with Vero; 3.79 in data set [16]. In the data set with Trypanosoma cruzi [17], the negative-log IC50 (pIC50) was 4.68. Further, the GI50 was 15 µM in the data set with DU-145; 20.6 µM with M14; 4.8 µM in [9]; 11.6 µM in the data set on K562; 15.2 µM with NCI-H460; 15.1 µM with MCF7. Besides, in the data set on HT-29, the GI50 was determined as 38.9 µM. Further, the Activity came out at 2.8 mm in the data set on Leishmania amazonensis [7], 17% with Leishmania amazonensis [12], 65% in the data set on Leishmania amazonensis [15] and 4.9 mm in the data set on Leishmania amazonensis [3]. Also, in data set [8], the selectivity ratio turned out to be 1. The same compound gave an MIC in [11] of 160 µM (≈ 46.2 µg/mL).

On to `O=C(Cn1ccnc1[N+](=O)[O-])NCc1ccccc1`, for which the result in the data set on Trypanosoma cruzi [18] was Active.

For `C(=C\c1ccccc1)/C=N/Nc1ncnc2sc3c(c12)CCCC3`, the “Ratio IC50” value in [6] and in [13] was 0.1 throughout. For the same compound, the GI50 in the data set with DU-145 was 5.4 µM; in the data set with M14, 4.6 µM; in data set [9], 4.4 µM; in the data set on K562, 1.6 µM; in the data set with NCI-H460, 2.1 µM; in the data set with MCF7, 2.1 µM. The GI50 in the data set on HT-29 amounted to 8.2 µM. Further, in data set [8], the selectivity ratio was 14.6. In [11], the MIC came to 35 µM (≈ 11.7 µg/mL). Further, the result with Trypanosoma cruzi [18] was inactive. Also, the negative-log IC50 (pIC50) with Leishmania amazonensis [14] is 4.78; with Vero it was 4.68; in [16] it was 5.77; in the data set on Trypanosoma cruzi [17], 5.85.

As for `CO[C@H]1/C=C/O[C@@]2(C)Oc3c(C)c(O)c4c(O)c(c(/C=N/N5CCN(C)CC5)c(O)c4c3C2=O)NC(=O)/C(C)=C\C=C\[C@H](C)[C@H](O)[C@@H](C)[C@@H](O)[C@@H](C)[C@H](OC(C)=O)[C@@H]1C` [RIFAMPIN], the MIC in [11] is 0.1 µM (≈ 0.0823 µg/mL); in data set [20], < 1.9 µM. Further, the “Ratio IC50” value in [13] amounted to 1080. Moreover, the selectivity ratio at 72 h in [19] was 1080.
